{"source": "paper PMC9669016", "about": "“First-in-human phase Ia study of the PI3Kα inhibitor CYH33 in patients with solid tumors” (Nature Communications, 2022)", "origin": "cited, not measured here", "key": {"[1]": {"test_system": "KYSE410, KYSE510, EC104, EC063, EC074 xenograft models", "parameters": "method as in Investigator's Brochure (IB) 12", "settings": "12.5 mg/kg; 9 values for 5 models, model column not assignable; ref Investigator's Brochure (IB) 12; listed as BYL-719; cited from earlier work"}, "[2]": {"test_system": "patients with PIK3CA-mutated HR+/HER2– breast cancer / PIK3CA-altered solid tumors", "settings": "cited from earlier work"}}, "note": "Values joined by “and” are separate entries in the source; they are usually repeats but may differ in a detail not shown here. Equal entries are not always repeated.", "data": [{"molecule": "Cc1nc(NC(=O)N2CCC[C@H]2C(N)=O)sc1-c1ccnc(C(C)(C)C(F)(F)F)c1", "note": "[alpelisib]", "values": [{"measurement": "T/C% (tumor/control ratio)", "setting": "[1]", "result": "29.09% and 47.62%"}, {"measurement": "frequency of diarrhea", "setting": "[2]", "result": 57.7, "unit": "%"}, {"measurement": "incidence of rash", "setting": "[2]", "result": 64.0, "unit": "%"}, {"measurement": "improvement in median overall survival", "setting": "[2]; phase III SOLAR-1, alpelisib plus fulvestrant vs fulvestrant plus placebo, advanced PIK3CA-mutated HR+/HER2– breast cancer", "result": 7.9, "unit": "month"}, {"measurement": "incidence of rash with prophylactic anti-rash medication", "setting": "[2]; within the first 4–8 weeks of treatment", "result": 24.6, "unit": "%"}]}]}
